Structures are written as SMILES.

The test deals with T1, APOL1 G1 Protein (Homo sapiens, UniProt O14791, I384M/S342G).
T1 sequence (O14791 28-398 S342G/I384M): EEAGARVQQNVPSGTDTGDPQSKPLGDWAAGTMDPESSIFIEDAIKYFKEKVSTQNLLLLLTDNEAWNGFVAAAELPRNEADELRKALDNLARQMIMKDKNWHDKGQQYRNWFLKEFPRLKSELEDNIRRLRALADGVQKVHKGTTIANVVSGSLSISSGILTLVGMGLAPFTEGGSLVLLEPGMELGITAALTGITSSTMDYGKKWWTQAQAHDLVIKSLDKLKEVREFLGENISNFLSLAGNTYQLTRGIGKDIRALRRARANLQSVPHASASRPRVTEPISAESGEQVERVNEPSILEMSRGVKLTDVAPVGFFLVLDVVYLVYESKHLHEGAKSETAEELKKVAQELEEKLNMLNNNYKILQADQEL
The test can be described thus: Trypanosoma brucei brucei lysis assay using APOL1 recombinant protein (AlamarBlue viability readout). The test is classed as cell-based. The following applies: Trypanosoma brucei brucei (Lister 427 VSG 221 bloodstream form) lysis by 0.05 μg/mL recombinant APOL1 G1, 16 hrs. From the text: Trypanosoma brucei brucei is a blood stream parasite to which human, gorillas and baboon are immune due to the presence of the APOL1 protein in their HDL particles. The protein is uptaken by the parasite via the TbHpHb receptor located in its flagellar pocket and is bonded by the Hpr protein contained in the HDL particles which triggers the receptor endocytosis by the parasite.
Following endocytosis, the formed vesicle containing the HDL particle matures from early to late endosome, and subsequently to lysosome. The concomitant pH change in the lumen of the vesicle triggers the insertion of the APOL1 protein into the membrane of the late endosome/lysosome and hereby triggers lysosomal membrane premeabilisation and as a further downstream event, trypanosome lysis. Trypanosoma brucei brucei is sensitive to lysis by all three APOL1 variants (G0, G1, and G2).
The Trypanosoma brucei brucei lysis assay is a lysis assay of the parasite using recombinant APOL1 protein variant followed by a fluorescent detection method of viability by the addition of AlamarBlue reagent to the assay well, a general metabolic redox indicator (AlamarBlue assay).
Briefly, the AlamarBlue active compound, the resazurin, a blue, water soluble, non-toxic and cell permeable molecule, which can be followed by absorbance, is reduced by various metabolic pathways into resorufin, a red compound which can be followed by either absorbance or fluorescence. The assay allows the calculation of the percent viability (percent of living Trypanosomes remaining in each well) at the end of a lysis relative to the untreated condition by interpolation of fluorescent values (FLU) on a standard curve with a known amount of seeded trypanosome/well.
Trypanosoma brucei brucei (ATCC, Cat. No. PRA-382) • Lister 427 VSG 221 bloodstream form.
Thaw/Expansion Media (ATCC Medium 2834 Modified HMI-9 Medium)
Equipment • E1-Clip Tip pipette 12 channel adjustable 2-125 μL, Cat. No. 4672070BT • ThermoFisher MultiDrop 384, Cat. No. 5840300 • Multidrop • Agilent Bravo, Cat. No. G5409A • Bravo • SpectraMax M5
Trypanosoma brucei brucei Culture
Step 2, Day 4 • Centrifuge at 800×g for 5 minutes at room temperature. • Resuspend in 1 mL media. • Make a 1:25 fold dilution (10 μL/240 μL media). • Count on a hemocytometer (after adding parasites). • Let sit for 1-2 minutes for the parasites to settle. • Count should be approximately 100 viable motile parasites/16 grid or approximately 25×10^6 parasites/flask. • Passage the parasites by adding 1×10^6 parasites/T75 flask in 20 mL media. • Passage the parasites by adding 2.33×10^6 parasites/T175 flask in 46.6 mL media. • For every T75 flask should make enough for approximately 1.5×384 well assay plates. • For every T175 flask should make enough for approximately 3.8×384 well assay plates.
Step 3. Day 6 • Centrifuge at 800×g for 5 minutes. • Resuspend in 3 mL assay media (No phenol red, no FBS) per 75 starting flask. • Resuspend in 7 mL assay media (No phenol red, no FBS) per 175 flask • Make a 1:25 fold dilution. • Count by hemocytometer. • Every T75 flask set up should have approximately 75×10^6 parasites/flask (verify doubling time=8.7 hrs 1 hr). • Every T175 flask set up should have approximately 175×10^6 parasites/flask (verify doubling time=8.7 hrs±1 hr). • Require 46×10^6 parasites per 384 well plate (at 120,000 parasites per well).
Step 2, Day 2 • Centrifuge at 800×g for 5 minutes at room temperature. • Resuspend in 1 mL media. • Make a 1:25 fold dilution (10 L/240 μL media). • Let sit for 1-2 minutes for the parasites to settle. • Count should be approximately 100 viable motile parasites/16 grid or approximately 8×10^6 parasites per flask. • Passage the parasites by adding 1.25×10^6 parasites per T75 flask in 20 mL media. • For every T75 flask set up should have approximately 1.5×384 well assay plates. • For every T175 flask setup should have approximately 3.8×384 well assay plates. […]
`[2H]C([2H])(C(=O)N[C@@H]1C(=O)NC[C@H]1O)C([2H])([2H])c1c(-c2ccc(F)cc2)[nH]c2c(F)cc(F)cc12` [Compound 88, 2,2,3,3-tetradeutero-3-[5,7-difluoro-2-(4-fluorophenyl)-1H-indol-3-yl]-N-[(3S,4R)-4-hydroxy-2-oxo-pyrrolidin-3-yl]propanamide]: the IC50 was under 250 nM.
To `O=C(CCc1c(-c2ccc(F)cc2)[nH]c2c(F)cc(F)cc12)N[C@@H]1C(=O)NC[C@@H]1O` [Compound 1, 3-[5,7-difluoro-2-(4-fluorophenyl)-1H-indol-3-yl]-N-[(3S,4S)-4-hydroxy-2-oxo-pyrrolidin-3-yl]propanamide] belongs under 250 nM; to `[2H]C(C(=O)N[C@@H]1C(=O)NC[C@H]1O)C([2H])c1c(-c2ccc(F)cc2)[nH]c2c(F)cc(F)cc12` (stereo partly drawn) [Compound 89, 2,3-dideuterio-3-[5,7-difluoro-2-(4-fluorophenyl)-1H-indol-3-yl]-N-[(3S,4R)-4-hydroxy-2-oxo-pyrrolidin-3-yl]propanamide], under 250 nM; to `O=C(CCc1c(-c2ccc(F)cc2)[nH]c2c(F)cc(F)cc12)N[C@@H]1C(=O)NC[C@H]1O` [Compound 2, 3-[5,7-difluoro-2-(4-fluorophenyl)-1H-indol-3-yl]-N-[(3S,4R)-4-hydroxy-2-oxo-pyrrolidin-3-yl]propanamide], under 250 nM.

The record behind these values is patent US11618746B2, “Inhibitors of APOL1 and methods of using same” (Vertex Pharmaceuticals Incorporated, priority 2018, dated 2023).
